This is an account of results in ChEMBL document CHEMBL3112413, “Novel coumarin-dihydropyrazole thio-ethanone derivatives: design, synthesis and anticancer activity” (Eur J Med Chem, 2014).

For one experiment, the system named is HepG2. The experiment can be described thus: Cytotoxicity against human HepG2 cells after 48 hrs by MTT assay. It counts as functional, cell-based. As to conditions: HepG2, 48 h. (Tetrazolium dyes change colour on reduction, which living cells bring about.)
In experiment [1] the target is Telomerase reverse transcriptase (Homo sapiens, UniProt O14746). The experiment can be described thus: Inhibition of telomerase in human MGC803 cell extracts after 24 hrs by TRAP-PCR-ELISA. Also on record: species or system MGC-803. (An ELISA detects its analyte on a solid surface through an enzyme-linked reagent.)
Chain of Telomerase reverse transcriptase (O14746 whole entry): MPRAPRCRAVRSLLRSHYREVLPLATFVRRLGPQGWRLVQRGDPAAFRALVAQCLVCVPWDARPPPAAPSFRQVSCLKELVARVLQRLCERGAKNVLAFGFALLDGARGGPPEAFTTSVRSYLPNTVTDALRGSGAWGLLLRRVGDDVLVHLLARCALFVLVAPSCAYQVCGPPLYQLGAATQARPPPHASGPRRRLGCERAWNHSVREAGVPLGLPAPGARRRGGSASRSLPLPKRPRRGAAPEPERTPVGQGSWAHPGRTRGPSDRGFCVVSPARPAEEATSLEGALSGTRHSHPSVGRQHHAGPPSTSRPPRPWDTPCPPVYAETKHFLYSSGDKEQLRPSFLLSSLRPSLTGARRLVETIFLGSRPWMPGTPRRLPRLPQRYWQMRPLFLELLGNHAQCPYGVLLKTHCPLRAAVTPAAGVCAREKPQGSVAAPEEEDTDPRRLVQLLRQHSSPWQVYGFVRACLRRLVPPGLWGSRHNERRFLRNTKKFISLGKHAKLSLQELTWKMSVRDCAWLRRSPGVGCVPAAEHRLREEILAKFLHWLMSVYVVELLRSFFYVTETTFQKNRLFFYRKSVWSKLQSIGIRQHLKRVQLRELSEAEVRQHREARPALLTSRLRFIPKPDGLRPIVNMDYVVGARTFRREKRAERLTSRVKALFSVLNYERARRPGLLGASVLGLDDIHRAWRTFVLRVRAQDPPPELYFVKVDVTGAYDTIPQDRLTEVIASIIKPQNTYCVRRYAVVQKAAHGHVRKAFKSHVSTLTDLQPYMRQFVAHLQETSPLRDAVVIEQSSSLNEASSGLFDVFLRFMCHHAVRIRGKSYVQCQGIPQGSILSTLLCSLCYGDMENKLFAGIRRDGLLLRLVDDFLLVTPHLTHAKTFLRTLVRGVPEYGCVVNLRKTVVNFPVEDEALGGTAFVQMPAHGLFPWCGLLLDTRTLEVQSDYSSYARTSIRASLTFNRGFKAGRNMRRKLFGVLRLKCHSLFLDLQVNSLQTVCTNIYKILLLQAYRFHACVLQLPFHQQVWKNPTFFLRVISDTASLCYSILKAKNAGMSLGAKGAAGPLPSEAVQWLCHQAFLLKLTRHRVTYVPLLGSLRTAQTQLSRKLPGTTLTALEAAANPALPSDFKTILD
The test system of experiment [2] is MGC-803. In words: Cytotoxicity against human MGC803 cells after 48 hrs by MTT assay. It counts as functional, cell-based. As to conditions: MGC-803, 48 h.
Experiment [3] in a line: Cytotoxicity against human SGC7901 cells after 48 hrs by MTT assay. It counts as functional, cell-based. As to conditions: SGC-7901, 48 h.
In experiment [4] the target is DNA polymerase I, thermostable (Thermus aquaticus) (UniProt P19821). In words: Inhibition of Thermus aquaticus Taq polymerase at IC50 for telomerase inhibition after 15 mins using ethidium bromide staining by 2% agarose gel electrophoresis analysis.
Chain of DNA polymerase I, thermostable (Thermus aquaticus) (P19821 whole entry): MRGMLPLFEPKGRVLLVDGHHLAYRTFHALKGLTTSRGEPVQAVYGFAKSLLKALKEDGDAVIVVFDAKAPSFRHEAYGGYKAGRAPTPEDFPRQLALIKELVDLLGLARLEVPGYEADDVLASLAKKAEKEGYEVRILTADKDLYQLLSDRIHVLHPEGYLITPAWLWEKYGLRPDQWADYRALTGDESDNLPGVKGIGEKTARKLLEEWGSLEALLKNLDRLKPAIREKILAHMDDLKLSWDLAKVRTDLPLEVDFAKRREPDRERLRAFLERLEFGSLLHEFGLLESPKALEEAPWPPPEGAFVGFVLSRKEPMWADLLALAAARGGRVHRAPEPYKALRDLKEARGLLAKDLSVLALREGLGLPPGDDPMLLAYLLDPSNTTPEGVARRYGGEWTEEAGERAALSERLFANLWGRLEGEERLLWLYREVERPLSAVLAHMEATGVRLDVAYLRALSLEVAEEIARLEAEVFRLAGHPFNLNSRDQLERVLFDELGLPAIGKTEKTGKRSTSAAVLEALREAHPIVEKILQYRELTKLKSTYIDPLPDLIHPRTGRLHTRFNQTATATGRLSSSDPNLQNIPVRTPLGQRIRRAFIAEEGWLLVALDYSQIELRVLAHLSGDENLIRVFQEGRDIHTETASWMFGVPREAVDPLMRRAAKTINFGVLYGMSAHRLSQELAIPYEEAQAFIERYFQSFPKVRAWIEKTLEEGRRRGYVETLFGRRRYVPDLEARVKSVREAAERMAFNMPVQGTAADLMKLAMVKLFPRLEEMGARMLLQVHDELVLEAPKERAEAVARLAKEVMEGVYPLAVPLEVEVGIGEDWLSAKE
For the next experiment, the system named is Bcap37. The experiment can be described thus: Cytotoxicity against human Bcap37 cells after 48 hrs by MTT assay. As to conditions: Bcap37, 48 h. The experiment is classed as functional, cell-based.
Experiment [5] has as its system MGC-803. The experiment can be described thus: Cell cycle arrest in human MGC803 cells assessed as accumulation at S phase at 25 uM after 48 hrs using propidium iodide staining after 48 hrs by flow cytometer relative to control. It counts as functional. Background: Flow cytometry measures light scatter and fluorescence of single cells or particles in a stream.
The test system of experiment [6] is MGC-803. In words: Cell cycle arrest in human MGC803 cells assessed as accumulation at G2/M phase at 25 uM after 48 hrs using propidium iodide staining after 48 hrs by flow cytometer relative to control. It counts as functional.
The subject of experiment [7] is MGC-803. In words: Cell cycle arrest in human MGC803 cells assessed as accumulation at G0/G1 phase at 25 uM after 48 hrs using propidium iodide staining after 48 hrs by flow cytometer relative to control. It counts as functional.
Experiment [8] concerns MGC-803. In words: Cell cycle arrest in human MGC803 cells assessed as accumulation at G0/G1 phase at […] uM after 48 hrs using propidium iodide staining after 48 hrs by flow cytometer relative to control. It counts as functional.
In experiment [9] the test system is MGC-803. The experiment can be described thus: Cell cycle arrest in human MGC803 cells assessed as accumulation at S phase at […] uM after 48 hrs using propidium iodide staining after 48 hrs by flow cytometer relative to control. The experiment is classed as functional.
The test system of experiment [10] is MGC-803. The experiment can be described thus: Cell cycle arrest in human MGC803 cells assessed as accumulation at G2/M phase at […] uM after 48 hrs using propidium iodide staining after 48 hrs by flow cytometer relative to control. The experiment is classed as functional.
Experiment [11] has as its system MGC-803. The experiment can be described thus: Cell cycle arrest in human MGC803 cells at 0.92 uM after 48 hrs using propidium iodide staining after 48 hrs by flow cytometer relative to control. The experiment is classed as functional.

Calls of active or inactive are those of the source. The rule behind the calls is not given here.

What is called IC50 is the concentration at which inhibition is half-maximal. The low end stands for higher potency, the high end for lower potency. As to `O=C(CSc1ncccn1)N1N=C(c2cc3ccccc3oc2=O)C[C@@H]1c1ccccc1C(F)(F)F`, the IC50 with HepG2 is 6.54 µM; in [1], 8.89 µM; in the experiment with MGC-803 [2] it was 4 µM; in [3] it was 4.97 µM; in the experiment with Bcap37 it was 4.09 µM. Further, in [4], the inhibition entry is “inactive”.
In the case of `O=C(CSc1ccc(Br)cc1)N1N=C(c2cc3ccccc3oc2=O)C[C@@H]1c1ccc(C(F)(F)F)cc1`, the IC50 with HepG2 was 12.7 µM; in [1] it was 25.1 µM; in the experiment on MGC-803 [2] it was 10.8 µM; in experiment [3], 12.1 µM; in the experiment with Bcap37 it was 7.99 µM. Also, the inhibition entry in experiment [4] is “inactive”.
As to `COC(=O)CSCC(=O)N1N=C(C)C[C@@H]1c1cc(Br)cc(Br)c1O`, the IC50 in the experiment with HepG2 stood at 2.95 µM; in [1] it was 1.19 µM; in the experiment on MGC-803 [2] it was 2.27 µM; in experiment [3] it was 3.3 µM; in the experiment with Bcap37, 3.7 µM. The inhibition entry in experiment [4] is “inactive”.
For `O=C(CSc1ccc([N+](=O)[O-])cc1)N1N=C(c2cc3ccccc3oc2=O)C[C@@H]1c1ccc(C(F)(F)F)cc1`, the IC50 with HepG2 worked out at 7.76 µM; in the experiment on MGC-803 [2], 10.2 µM; in experiment [3], 8.51 µM; in the experiment on Bcap37 it was 16.5 µM.
For the molecule `O=c1[nH]cc(F)c(=O)[nH]1` [FLUOROURACIL], the IC50 came out at 4.35 µM with HepG2, 3.68 µM with MGC-803 [2], 7.37 µM in experiment [3] and 5.58 µM in the experiment with Bcap37.
In the same order, the values of `O=C(CSCc1ccco1)N1N=C(c2cc3ccccc3oc2=O)C[C@@H]1c1ccccc1C(F)(F)F` are 18 µM, 15.7 µM, 10.2 µM and 10.3 µM.
As for `O=C(CSc1ncccn1)N1N=C(c2cc3ccccc3oc2=O)C[C@@H]1c1ccc(C(F)(F)F)cc1`, the IC50 in the experiment on HepG2 was 4.75 µM; with MGC-803 [2] it was 2.89 µM; in experiment [3], 4.39 µM; in the experiment with Bcap37, 3.77 µM.
On to `CC1=NN(C(=O)CSc2ccc(Br)cc2)[C@@H](c2cc(Br)cc(Br)c2O)C1`, for which the IC50 with HepG2 came to 6.87 µM; in the experiment with MGC-803 [2], 12.8 µM; in [3], 8.21 µM; in the experiment with Bcap37 it was 3.2 µM.
Take `O=C(CSc1ccc([N+](=O)[O-])cc1)N1N=C(c2cc3ccccc3oc2=O)C[C@@H]1c1ccccc1C(F)(F)F`: the IC50 stood at 7.7 µM with HepG2, 7.58 µM in the experiment with MGC-803 [2], 9.77 µM in [3] and 10.8 µM in the experiment on Bcap37.
`O=c1cc(N2CCOCC2)oc2c(-c3ccccc3)cccc12` [LY-294002]: the Activity with MGC-803 [5] is reported as 27.1%; with MGC-803 [6], 22.4%; in the experiment on MGC-803 [7] it was 50.5%.
In the case of `O=C(CSc1ccccc1)N1N=C(c2cc3ccccc3oc2=O)C[C@@H]1c1ccccc1`, the IC50 turned out to be 16.3 µM in the experiment on HepG2, 22.8 µM with MGC-803 [2], 20.3 µM in experiment [3] and 14.8 µM in the experiment with Bcap37.
On to `CCCSCC(=O)N1N=C(C)C[C@@H]1c1cc(Br)cc(Br)c1O`, for which the IC50 was 4 µM with HepG2; 1.04 µM in [1]; 2.97 µM in the experiment on MGC-803 [2]; 2.3 µM in [3]; 3.24 µM with Bcap37. In addition, the Activity in the experiment with MGC-803 [8] came out at 47.2%; with MGC-803 [9], 30.1%; in the experiment on MGC-803 [10], 25.2%. Further, the inhibition entry in experiment [4] is “inactive”.
Regarding `CC1=NN(C(=O)CSc2ccccn2)[C@@H](c2cc(Br)cc(Br)c2O)C1`, the IC50 worked out at 24.7 µM in the experiment with HepG2, 12.3 µM in the experiment with MGC-803 [2], 10.3 µM in experiment [3] and 16.7 µM in the experiment on Bcap37.
Consider `CCCCSCC(=O)N1N=C(c2cc3ccccc3oc2=O)C[C@@H]1c1ccccc1`, for which the IC50 stood at 6.64 µM in the experiment on HepG2, 12.8 µM with MGC-803 [2], 7.3 µM in [3] and 9.7 µM in the experiment on Bcap37.
For `O=C(CSc1ccc(Br)cc1)N1N=C(c2cc3ccccc3oc2=O)C[C@@H]1c1ccccc1` the same measures were 14.5 µM, 16.8 µM, 14.3 µM and 13 µM.
`CC[n+]1c(-c2ccccc2)c2cc(N)ccc2c2ccc(N)cc21` [HOMIDIUM BROMIDE] yielded an IC50 in [1] of 2.1 µM.
In the case of `CCCCSCC(=O)N1N=C(c2cc3ccccc3oc2=O)C[C@@H]1c1ccc(C(F)(F)F)cc1`, the IC50 came to 8.68 µM in the experiment on HepG2; 0.92 µM in experiment [1]; 2.35 µM in the experiment on MGC-803 [2]; 2.91 µM in [3]; 3.55 µM in the experiment with Bcap37. For the same molecule, the Activity in the experiment with MGC-803 [11] is given as 66%. Also, in experiment [4], the inhibition result is “inactive”.
In the case of `CC1=NN(C(=O)CSc2ccccc2)[C@@H](c2cc(Br)cc(Br)c2O)C1`, the IC50 was 10.3 µM with HepG2, 12.7 µM in the experiment with MGC-803 [2], 24.1 µM in [3] and 13.1 µM in the experiment on Bcap37.
On to `CC1=NN(C(=O)CSc2nc3ccccc3s2)[C@@H](c2cc(Br)cc(Br)c2O)C1`, for which the IC50 in the experiment on HepG2 was 8.7 µM; in experiment [1], 4.65 µM; in the experiment on MGC-803 [2], 7.8 µM; in [3], 12.3 µM; with Bcap37, 9.7 µM.
Regarding `CCCCSCC(=O)N1N=C(c2cc3ccccc3oc2=O)C[C@@H]1c1ccccc1C(F)(F)F`, the IC50 in the experiment with HepG2 turned out to be 5.01 µM; in experiment [1], 2 µM; with MGC-803 [2], 3.14 µM; in experiment [3], 4.42 µM; in the experiment with Bcap37, 9.73 µM. Further, in experiment [4], the inhibition entry was “inactive”.
Consider `O=C(CSc1ccc(Br)cc1)N1N=C(c2cc3ccccc3oc2=O)C[C@@H]1c1ccccc1C(F)(F)F`, for which the IC50 in the experiment on HepG2 turned out to be 17.9 µM; in the experiment with MGC-803 [2], 21.3 µM; in experiment [3], 14.7 µM; in the experiment with Bcap37 it was 10.3 µM.
Regarding `O=C(CSCc1ccco1)N1N=C(c2cc3ccccc3oc2=O)C[C@@H]1c1ccc(C(F)(F)F)cc1`, the IC50 in the experiment with HepG2 amounted to 11.2 µM; with MGC-803 [2] it was 15.2 µM; in [3], 9.74 µM; in the experiment on Bcap37, 12 µM.
The molecule `C/C(=C\C(=O)Nc1ccccc1C(=O)O)c1ccc2ccccc2c1` showed an IC50 in experiment [1] of 0.28 µM.
